Source: paper doi:10.1101/2024.08.13.607785v1 (biorxiv, 2024)
Read-outs that look alike come from different tables or passages of the source. Blank lines part the entries; values can stand above or below the compound they belong to.

Key:
Experiment in all cases: biochemical
Design in all cases: species or system human cell line lysate
[1] = target: Dual specificity protein kinase CLK4 ; CLK4 ; Q9HAZ1 (Homo sapiens, UniProt Q9HAZ1)
[2] = target: Phosphatidylinositol 4,5-bisphosphate 3-kinase catalytic subunit beta ; PIK3CB ; P42338 (Homo sapiens, UniProt P42338)
[3] = target: Interferon-induced, double-stranded RNA-activated protein kinase ; EIF2AK2 ; P19525 (Homo sapiens, UniProt P19525)
[4] = target: Isoform 3 of Serine/threonine-protein kinase MARK1 ; MARK1 ; Q9P0L2-3 (Homo sapiens, UniProt Q9P0L2)
[5] = target: Serine/threonine-protein kinase ULK3 ; ULK3 ; Q6PHR2 (Homo sapiens, UniProt Q6PHR2)
[6] = target: Serine/threonine-protein kinase TAO1 ; TAOK1 ; Q7L7X3 (Homo sapiens, UniProt Q7L7X3)
[7] = target: Tyrosine-protein kinase Fyn ; FYN ; P06241 (Homo sapiens, UniProt P06241)
[8] = target: Serine/threonine-protein kinase 16 ; STK16 ; O75716 (Homo sapiens, UniProt O75716)
[9] = target: Serine/threonine-protein kinase PLK4 ; PLK4 ; O00444 (Homo sapiens, UniProt O00444)
[10] = target: Serine/threonine-protein kinase haspin ; HASPIN ; Q8TF76 (Homo sapiens, UniProt Q8TF76)
[11] = target: Serine/threonine-protein kinase ATR ; ATR ; Q13535 (Homo sapiens, UniProt Q13535)
[12] = target: Phosphoinositide 3-kinase regulatory subunit 4 ; PIK3R4 ; Q99570 (Homo sapiens, UniProt Q99570)
[13] = target: Tyrosine-protein kinase SYK ; SYK ; P43405 (Homo sapiens, UniProt P43405)
[14] = target: Beta-adrenergic receptor kinase 2 ; GRK3 ; P35626 (Homo sapiens, UniProt P35626)
[15] = target: Serine/threonine-protein kinase BRSK2 ; BRSK2 ; Q8IWQ3 (Homo sapiens, UniProt Q8IWQ3)
[16] = target: Ephrin type-B receptor 4 ; EPHB4 ; P54760 (Homo sapiens, UniProt P54760)
[17] = target: Activin receptor type-1 ; ACVR1 ; Q04771 (Homo sapiens, UniProt Q04771)
[18] = target: T1, Serine/threonine-protein kinase NLK ; NLK ; Q9UBE8 (Homo sapiens, UniProt Q9UBE8)
T1 sequence (Q9UBE8 1-527): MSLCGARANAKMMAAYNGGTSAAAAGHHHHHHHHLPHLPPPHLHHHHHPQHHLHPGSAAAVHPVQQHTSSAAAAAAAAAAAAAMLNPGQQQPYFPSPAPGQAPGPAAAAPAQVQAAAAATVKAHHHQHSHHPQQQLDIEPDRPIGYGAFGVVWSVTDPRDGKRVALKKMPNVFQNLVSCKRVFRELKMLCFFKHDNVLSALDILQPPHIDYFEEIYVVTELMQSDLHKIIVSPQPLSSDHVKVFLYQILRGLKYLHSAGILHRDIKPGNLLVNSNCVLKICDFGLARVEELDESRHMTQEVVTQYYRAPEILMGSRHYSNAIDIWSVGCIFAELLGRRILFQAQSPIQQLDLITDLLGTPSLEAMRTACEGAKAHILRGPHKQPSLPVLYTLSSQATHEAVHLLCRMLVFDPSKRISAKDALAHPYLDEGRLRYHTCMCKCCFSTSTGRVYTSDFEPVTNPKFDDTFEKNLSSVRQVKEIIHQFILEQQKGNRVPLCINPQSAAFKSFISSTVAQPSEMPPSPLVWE

[19] = target: Mitogen-activated protein kinase kinase kinase 1 ; MAP3K1 ; Q13233 (Homo sapiens, UniProt Q13233)
[20] = read-out: BAY-1143572 (10 µM) / %Intensity relative to DMSO
[21] = read-out: BAY-1251152 (10 µM) / %Intensity relative to DMSO

Isoform 3 of Serine/threonine-protein kinase MARK1 ; MARK1 ; Q9P0L2-3, sequence (Q9P0L2 whole entry, canonical isoform, one chain of several): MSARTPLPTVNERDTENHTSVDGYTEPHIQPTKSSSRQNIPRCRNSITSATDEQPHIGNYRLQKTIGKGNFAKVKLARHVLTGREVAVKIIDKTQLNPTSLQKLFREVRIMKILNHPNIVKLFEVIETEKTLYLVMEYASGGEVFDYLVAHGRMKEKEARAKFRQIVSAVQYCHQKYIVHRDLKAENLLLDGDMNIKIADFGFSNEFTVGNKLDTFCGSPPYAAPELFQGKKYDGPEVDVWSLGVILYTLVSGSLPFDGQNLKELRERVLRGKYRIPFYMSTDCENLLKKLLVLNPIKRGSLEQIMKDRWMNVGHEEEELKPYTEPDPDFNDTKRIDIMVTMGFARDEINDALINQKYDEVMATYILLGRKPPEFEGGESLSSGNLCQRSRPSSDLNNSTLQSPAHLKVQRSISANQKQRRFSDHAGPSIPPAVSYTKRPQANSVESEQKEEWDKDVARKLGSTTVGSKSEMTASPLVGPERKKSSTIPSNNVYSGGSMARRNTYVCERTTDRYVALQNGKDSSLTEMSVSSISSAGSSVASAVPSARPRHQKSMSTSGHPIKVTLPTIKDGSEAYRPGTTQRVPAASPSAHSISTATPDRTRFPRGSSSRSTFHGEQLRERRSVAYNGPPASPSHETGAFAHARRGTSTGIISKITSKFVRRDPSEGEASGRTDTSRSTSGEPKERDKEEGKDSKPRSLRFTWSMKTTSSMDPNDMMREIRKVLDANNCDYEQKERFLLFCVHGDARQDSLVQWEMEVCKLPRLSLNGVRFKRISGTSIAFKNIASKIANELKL
Serine/threonine-protein kinase ULK3 ; ULK3 ; Q6PHR2, sequence (Q6PHR2 whole entry, one chain of several): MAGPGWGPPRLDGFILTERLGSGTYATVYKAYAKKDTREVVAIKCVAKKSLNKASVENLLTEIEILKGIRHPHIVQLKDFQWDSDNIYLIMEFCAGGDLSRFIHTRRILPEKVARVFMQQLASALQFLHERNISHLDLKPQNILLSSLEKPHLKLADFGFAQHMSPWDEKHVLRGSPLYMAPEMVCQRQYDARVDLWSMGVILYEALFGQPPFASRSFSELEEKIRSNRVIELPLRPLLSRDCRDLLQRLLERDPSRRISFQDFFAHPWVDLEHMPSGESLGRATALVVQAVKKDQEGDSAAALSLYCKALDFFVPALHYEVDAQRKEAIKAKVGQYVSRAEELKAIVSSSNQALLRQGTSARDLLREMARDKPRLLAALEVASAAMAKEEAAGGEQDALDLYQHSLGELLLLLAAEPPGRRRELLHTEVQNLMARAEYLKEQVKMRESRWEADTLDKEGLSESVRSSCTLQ
Serine/threonine-protein kinase ATR ; ATR ; Q13535, sequence (Q13535 whole entry, one chain of several): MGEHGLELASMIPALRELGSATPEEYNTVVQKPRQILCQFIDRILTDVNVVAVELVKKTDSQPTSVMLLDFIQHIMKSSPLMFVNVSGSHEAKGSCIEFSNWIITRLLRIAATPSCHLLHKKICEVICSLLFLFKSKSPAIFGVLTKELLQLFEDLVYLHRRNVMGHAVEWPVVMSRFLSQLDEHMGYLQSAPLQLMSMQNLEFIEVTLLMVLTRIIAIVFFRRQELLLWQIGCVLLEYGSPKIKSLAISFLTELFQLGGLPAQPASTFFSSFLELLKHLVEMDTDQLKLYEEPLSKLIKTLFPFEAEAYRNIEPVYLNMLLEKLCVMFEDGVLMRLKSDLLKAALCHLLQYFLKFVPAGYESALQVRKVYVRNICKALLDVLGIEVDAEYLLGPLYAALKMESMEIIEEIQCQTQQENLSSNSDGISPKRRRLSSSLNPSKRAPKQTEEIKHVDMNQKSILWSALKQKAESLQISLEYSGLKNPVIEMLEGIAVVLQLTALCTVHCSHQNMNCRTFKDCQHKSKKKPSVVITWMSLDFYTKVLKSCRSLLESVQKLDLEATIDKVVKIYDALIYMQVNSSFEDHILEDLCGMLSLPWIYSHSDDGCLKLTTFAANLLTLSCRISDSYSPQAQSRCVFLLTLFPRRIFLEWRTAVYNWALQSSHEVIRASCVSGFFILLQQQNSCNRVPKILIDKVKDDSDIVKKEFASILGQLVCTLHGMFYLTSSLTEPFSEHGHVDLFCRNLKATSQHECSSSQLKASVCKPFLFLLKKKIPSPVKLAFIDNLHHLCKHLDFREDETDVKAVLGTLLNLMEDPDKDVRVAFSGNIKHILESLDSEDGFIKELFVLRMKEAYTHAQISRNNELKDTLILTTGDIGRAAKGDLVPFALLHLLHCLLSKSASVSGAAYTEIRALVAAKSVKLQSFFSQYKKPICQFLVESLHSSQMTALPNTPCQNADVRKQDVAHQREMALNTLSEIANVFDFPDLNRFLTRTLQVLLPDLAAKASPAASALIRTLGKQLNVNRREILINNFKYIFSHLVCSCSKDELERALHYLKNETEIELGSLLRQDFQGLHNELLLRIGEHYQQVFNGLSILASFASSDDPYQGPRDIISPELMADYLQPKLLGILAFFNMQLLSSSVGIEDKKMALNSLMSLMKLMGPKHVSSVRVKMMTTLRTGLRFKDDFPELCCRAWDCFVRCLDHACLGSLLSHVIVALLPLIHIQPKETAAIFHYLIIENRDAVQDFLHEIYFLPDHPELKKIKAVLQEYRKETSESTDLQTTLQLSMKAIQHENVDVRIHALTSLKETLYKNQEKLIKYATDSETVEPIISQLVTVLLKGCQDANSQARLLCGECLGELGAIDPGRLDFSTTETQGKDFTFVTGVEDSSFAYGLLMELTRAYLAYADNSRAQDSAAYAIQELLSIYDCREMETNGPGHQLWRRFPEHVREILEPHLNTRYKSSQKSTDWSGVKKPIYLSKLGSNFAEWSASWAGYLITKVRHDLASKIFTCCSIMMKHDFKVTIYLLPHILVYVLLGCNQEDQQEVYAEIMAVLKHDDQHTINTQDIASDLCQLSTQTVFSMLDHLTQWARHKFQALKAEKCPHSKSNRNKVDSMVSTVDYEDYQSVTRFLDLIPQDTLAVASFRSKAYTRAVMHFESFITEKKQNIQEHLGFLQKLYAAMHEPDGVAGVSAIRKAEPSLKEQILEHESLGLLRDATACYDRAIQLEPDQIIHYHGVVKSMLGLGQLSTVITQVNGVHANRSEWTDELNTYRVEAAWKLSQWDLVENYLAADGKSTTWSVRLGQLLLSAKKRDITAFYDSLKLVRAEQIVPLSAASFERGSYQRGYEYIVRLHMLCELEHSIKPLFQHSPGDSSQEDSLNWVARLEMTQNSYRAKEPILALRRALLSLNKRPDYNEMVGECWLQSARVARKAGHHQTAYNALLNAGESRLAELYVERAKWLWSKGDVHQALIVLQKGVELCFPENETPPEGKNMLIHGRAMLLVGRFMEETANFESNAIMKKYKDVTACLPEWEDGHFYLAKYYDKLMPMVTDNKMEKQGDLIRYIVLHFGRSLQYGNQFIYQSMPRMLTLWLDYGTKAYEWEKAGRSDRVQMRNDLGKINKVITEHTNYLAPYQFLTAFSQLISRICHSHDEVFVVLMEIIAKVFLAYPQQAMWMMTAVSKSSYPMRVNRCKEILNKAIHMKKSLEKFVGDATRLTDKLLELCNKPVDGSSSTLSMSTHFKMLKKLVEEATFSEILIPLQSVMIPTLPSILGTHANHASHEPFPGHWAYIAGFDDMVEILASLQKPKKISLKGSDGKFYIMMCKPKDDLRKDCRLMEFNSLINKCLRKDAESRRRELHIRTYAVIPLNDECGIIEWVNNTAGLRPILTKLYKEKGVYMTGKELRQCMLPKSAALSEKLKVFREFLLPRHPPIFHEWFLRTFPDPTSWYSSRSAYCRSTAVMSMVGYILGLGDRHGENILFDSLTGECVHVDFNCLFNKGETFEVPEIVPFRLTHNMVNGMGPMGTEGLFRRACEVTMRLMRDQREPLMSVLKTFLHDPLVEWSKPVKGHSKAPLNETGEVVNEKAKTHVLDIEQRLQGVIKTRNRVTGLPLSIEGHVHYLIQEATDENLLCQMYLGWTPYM
Tyrosine-protein kinase Fyn ; FYN ; P06241, sequence (P06241 whole entry): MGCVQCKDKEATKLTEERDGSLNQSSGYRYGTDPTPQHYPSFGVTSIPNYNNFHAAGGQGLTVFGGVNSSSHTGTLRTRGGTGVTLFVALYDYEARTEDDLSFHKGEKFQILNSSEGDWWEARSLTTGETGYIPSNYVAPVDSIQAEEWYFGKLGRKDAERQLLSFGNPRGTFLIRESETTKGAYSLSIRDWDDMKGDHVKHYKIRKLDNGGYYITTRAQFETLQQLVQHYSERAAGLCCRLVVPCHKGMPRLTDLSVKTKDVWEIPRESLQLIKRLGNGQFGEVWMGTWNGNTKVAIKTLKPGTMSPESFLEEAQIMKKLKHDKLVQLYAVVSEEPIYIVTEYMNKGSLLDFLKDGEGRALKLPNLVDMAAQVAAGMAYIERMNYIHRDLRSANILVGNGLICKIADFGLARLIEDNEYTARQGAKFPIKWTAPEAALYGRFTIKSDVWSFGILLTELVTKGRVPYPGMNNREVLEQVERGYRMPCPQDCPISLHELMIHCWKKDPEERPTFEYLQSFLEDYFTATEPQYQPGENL
Activin receptor type-1 ; ACVR1 ; Q04771, sequence (Q04771 whole entry): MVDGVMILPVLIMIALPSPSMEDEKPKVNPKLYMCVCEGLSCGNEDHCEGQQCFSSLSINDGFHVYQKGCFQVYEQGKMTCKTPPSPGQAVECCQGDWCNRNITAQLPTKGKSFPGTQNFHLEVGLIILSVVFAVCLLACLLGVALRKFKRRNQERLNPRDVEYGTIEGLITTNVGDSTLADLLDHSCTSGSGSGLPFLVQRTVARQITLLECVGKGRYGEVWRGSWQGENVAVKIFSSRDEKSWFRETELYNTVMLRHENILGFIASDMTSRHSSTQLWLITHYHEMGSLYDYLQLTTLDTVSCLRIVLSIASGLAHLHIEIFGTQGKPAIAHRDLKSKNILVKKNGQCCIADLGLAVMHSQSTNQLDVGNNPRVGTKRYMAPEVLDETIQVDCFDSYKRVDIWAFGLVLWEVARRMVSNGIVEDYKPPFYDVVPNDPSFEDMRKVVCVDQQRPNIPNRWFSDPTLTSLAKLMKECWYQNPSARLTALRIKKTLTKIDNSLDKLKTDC

remaining activity at 10 µM [1, 20]: 141%
remaining activity at 10 µM [2, 20]: 83.7%
remaining activity at 10 µM [3, 20]: 80%
remaining activity at 10 µM [4, 20]: 80.9%
remaining activity at 10 µM [5, 20]: 93.7%
remaining activity at 10 µM [6, 20]: 114%
remaining activity at 10 µM [7, 20]: 92.2%
remaining activity at 10 µM [8, 20]: 64.2%
remaining activity at 10 µM [9, 20]: 104%
remaining activity at 10 µM [10, 20]: 75.8%
remaining activity at 10 µM [11, 20]: 109%
remaining activity at 10 µM [12, 20]: 101%
remaining activity at 10 µM [13, 20]: 106%
remaining activity at 10 µM [14, 20]: 88.8%
remaining activity at 10 µM [15, 20]: 104%
remaining activity at 10 µM [16, 20]: 94.1%
remaining activity at 10 µM [17, 20]: 87.7%
remaining activity at 10 µM [18, 20]: 103%
remaining activity at 10 µM [19, 20]: 73.3%
Compound: COc1cc(F)ccc1-c1ncnc(Nc2cccc(C[S@](C)(=N)=O)c2)n1 [BAY-1143572]

remaining activity at 10 µM [1, 21]: 133%
remaining activity at 10 µM [2, 21]: 57.7%
remaining activity at 10 µM [3, 21]: 74.4%
remaining activity at 10 µM [4, 21]: 84.7%
remaining activity at 10 µM [5, 21]: 94.5%
remaining activity at 10 µM [6, 21]: 88.3%
remaining activity at 10 µM [7, 21]: 103%
remaining activity at 10 µM [8, 21]: 61.5%
remaining activity at 10 µM [9, 21]: 109%
remaining activity at 10 µM [10, 21]: 68.5%
remaining activity at 10 µM [11, 21]: 70.1%
remaining activity at 10 µM [12, 21]: 107%
remaining activity at 10 µM [13, 21]: 94%
remaining activity at 10 µM [14, 21]: 83.7%
remaining activity at 10 µM [15, 21]: 114%
remaining activity at 10 µM [16, 21]: 100%
remaining activity at 10 µM [17, 21]: 99.3%
remaining activity at 10 µM [18, 21]: 115%
remaining activity at 10 µM [19, 21]: 82.4%
Compound: COc1cc(F)ccc1-c1cc(Nc2cc(CS(C)(=N)=O)ccn2)ncc1F (centres unmarked) [BAY-1251152]
